Where “and” joins values, the source holds several entries; their conditions need not be identical. Identical values can stand only once. Inconclusive results and toxic doses are left out.
Tested on: P388 leukemia ip, CD2F1 mice, survival T/C
Test: NCI In Vivo Anticancer Drug Screen. Data for tumor model P388 Leukemia (intraperitoneal) in CD2F1 (CDF1) mice
Details: endpoint: median survival time, higher = longer survival
In short: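 Mice carrying the transplanted tumor received test compound or vehicle. Survival was recorded in each group, and the value is the treated-group measurement divided by that of the vehicle-treated control group.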

[1] = dose: 50.0 mg/kg/injection, schedule: Q01DX005 (ip), vehicle: saline with Tween-80
[2] = dose: 100.0 mg/kg/injection, schedule: Q01DX005 (ip), vehicle: saline with Tween-80
[3] = dose: 200.0 mg/kg/injection, schedule: Q01DX005 (ip), vehicle: saline with Tween-80
[4] = dose: 50.0 mg/kg/injection, schedule: Q01DX005 (ip), vehicle: Klucel (hydroxypropylcellulose) (HPC)
[5] = dose: 100.0 mg/kg/injection, schedule: Q01DX005 (ip), vehicle: Klucel (hydroxypropylcellulose) (HPC)
[6] = dose: 50.0 mg/kg/injection, schedule: Q01DX009 (ip), vehicle: Klucel (hydroxypropylcellulose) (HPC)
[7] = dose: 100.0 mg/kg/injection, schedule: Q01DX009 (ip), vehicle: Klucel (hydroxypropylcellulose) (HPC)

CC(NC(=O)C(CCCCN)N(C(=O)OCc1ccccc1)C(=O)OCc1ccccc1)C(=O)O (configuration not stated) (tested in a mixture with another compound)
T/C (dose: 50.0 mg/kg/injection, schedule: Q01DX005 (ip), vehicle: suspension in saline): 111 % of control
T/C (dose: 100.0 mg/kg/injection, schedule: Q01DX005 (ip), vehicle: suspension in saline): 111 % of control
T/C (dose: 200.0 mg/kg/injection, schedule: Q01DX005 (ip), vehicle: suspension in saline): 110 % of control

O=[N+]([O-])c1c(Nc2ccccc2)n(-c2ccccc2)c2ccc(O)cc12
T/C (dose: 3.12 mg/kg/injection, schedule: Q01DX005 (ip), vehicle: saline with Tween-80): 92 % of control
T/C (dose: 6.25 mg/kg/injection, schedule: Q01DX005 (ip), vehicle: saline with Tween-80): 102 % of control
T/C (dose: 12.5 mg/kg/injection, schedule: Q01DX005 (ip), vehicle: saline with Tween-80): 90 % of control and 92 % of control
T/C [1]: 86 % of control

O=C1C(=Cc2ccc(Cl)cc2)C(=O)N(c2ccccc2)C(=S)N1c1ccccc1
T/C (dose: 100.0 mg/kg/injection, schedule: Q04DX002 (ip), vehicle: Klucel (hydroxypropylcellulose) (HPC)): 101 % of control
T/C (dose: 200.0 mg/kg/injection, schedule: Q04DX002 (ip), vehicle: Klucel (hydroxypropylcellulose) (HPC)): 93 % of control
T/C (dose: 400.0 mg/kg/injection, schedule: Q04DX002 (ip), vehicle: Klucel (hydroxypropylcellulose) (HPC)): 89 % of control

CC1(C)OC2C3CC(C2O1)C1C3C2(Cl)CC1(Cl)C(Cl)=C2Cl (configuration not stated)
T/C [1]: 106 % of control
T/C [2]: 99 % of control
T/C [3]: 101 % of control

CC1CC12OC(=O)N(c1cc(Cl)cc(Cl)c1)C2=O (configuration not stated)
T/C (dose: 50.0 mg/kg/injection, schedule: Q01DX005 (ip), vehicle: saline + Tween-80 + alcohol): 98 % of control
T/C (dose: 100.0 mg/kg/injection, schedule: Q01DX005 (ip), vehicle: saline + Tween-80 + alcohol): 100 % of control
T/C (dose: 200.0 mg/kg/injection, schedule: Q01DX005 (ip), vehicle: saline + Tween-80 + alcohol): 101 % of control

O=C(CN1CCNCC1)N1CCCC1
T/C [4]: 106 % of control
T/C [5]: 97 % of control
T/C (dose: 200.0 mg/kg/injection, schedule: Q01DX005 (ip), vehicle: Klucel (hydroxypropylcellulose) (HPC)): 98 % of control

CCCCCNC(=O)CCC(NC(=O)c1ccc(N(C)Cc2cnc3nc(N)nc(N)c3n2)cc1)C(=O)O (configuration not stated)
T/C (dose: 200.0 mg/kg/injection, schedule: Q01DX009 (ip), vehicle: sodium bicarbonate): 155 % of control
T/C (dose: 400.0 mg/kg/injection, schedule: Q01DX009 (ip), vehicle: sodium bicarbonate): 91 % of control

Cc1ccc(C)c2c1C(O)(C#Cc1ccccc1)c1c(C)ccc(C)c1C2(O)C#Cc1ccccc1 (configuration not stated)
T/C (dose: 25.0 mg/kg/injection, schedule: Q01DX005 (ip), vehicle: Klucel (hydroxypropylcellulose) (HPC)): 90 % of control
T/C [4]: 93 % of control
T/C [5]: 86 % of control

CC(CN)OS(=O)(=O)O (configuration not stated)
T/C (dose: 100.0 mg/kg/injection, schedule: Q04DX003 (ip), vehicle: saline with Tween-80): 100 % of control
T/C (dose: 200.0 mg/kg/injection, schedule: Q04DX003 (ip), vehicle: saline with Tween-80): 100 % of control
T/C (dose: 400.0 mg/kg/injection, schedule: Q04DX003 (ip), vehicle: saline with Tween-80): 95 % of control

CNc1ccccc1C(=O)NNC(=O)Nc1ccccc1C(F)(F)F
T/C [1]: 98 % of control
T/C [2]: 100 % of control
T/C [3]: 111 % of control

O=C(O)CCCC(C(=O)O)N1C(=O)c2ccccc2C1=O (configuration not stated)
T/C [1]: 94 % of control
T/C [2]: 93 % of control
T/C [3]: 87 % of control

CCCCNC1=C(Cl)C(=O)c2ccccc2C1=O
T/C [6]: 92 % of control
T/C [7]: 92 % of control
T/C (dose: 200.0 mg/kg/injection, schedule: Q01DX009 (ip), vehicle: Klucel (hydroxypropylcellulose) (HPC)): 91 % of control
T/C (dose: 400.0 mg/kg/injection, schedule: Q01DX009 (ip), vehicle: Klucel (hydroxypropylcellulose) (HPC)): 105 % of control

CCCCCCCCn1nnnc1C(F)(F)F
T/C [1]: 100 % of control
T/C [2]: 102 % of control
T/C [3]: 102 % of control

CN1Cc2c(N)cccc2C(c2ccccc2)C1 (configuration not stated)
T/C [6]: 96 % of control
T/C [7]: 105 % of control

Source: PubChem BioAssay AID330 (DTP/NCI, 2004)
